The source of these data is US4224326A, “Immunosuppressive agents” (Eli Lilly and Company, priority 1978, dated 1980).

Assay [1] relates to GVH reaction. The assay can be described thus: Graft-versus-host (GVH) reaction, spleen weight. Format: in vivo, mouse (C57BL spleen cells into C57BL×C3H F1 hybrid). The protocol: In this test, parental (C57BL) mouse spleen cells are injected into mice of an F1 hybrid strain (C57BL×C3H). […] As a consequence, the recipient's spleen becomes enlarged. Immunosuppression prevents or reduces this enlargement. Thus, spleen weights provide a measure of the GVH reaction and its reduction under immunosuppression. A modification of Simonsen's original procedure (Ann. N.Y. Acad. Sci. 73:834, 1958) was employed. Large crops of spleen cells were obtained, without the generally employed manual teasing of spleens, by using Waring blendors with the cutting blades reversed. Two six-second blending periods buffeted the spleens (batches of 25 C57BL spleens in 25-ml saline) sufficiently to free the cells from the connective tissue. The latter was removed by filtration through several thicknesses of cheesecloth. Cell suspensions prepared in this fashion were standardized, by means of Levy-Hausser chamber counts, to contain 6×10^8 nucleated cells per ml. Groups of ten 16-18 gram C57BL×C3H mice were injected intraperitoneally with 1 ml of the donor cell suspension. Treatment, by the oral or subcutaneous route in 0.2 ml, was instituted 3 days prior to cell injection and continued daily for 13 days. Control animals received only cells and vehicle. The spleens were removed and weighed 10 days following cell injection. The results were expressed as mg spleen/gram body weight. Since the injection of syngeneic, i.e., C57BL×C3H, cells into the recipient mice produces a minor degree of splenomegaly, spleen weights of such animals were used to define 100% suppression of the GVH component in calculating percents of inhibition produced by the immunosuppressive compounds.

Assay [2] relates to antibody (hemagglutinin) production against sheep red blood cells. As to the kind of experiment: Mouse hemagglutinin assay, oral administration (antibody reduction). Format: in vivo, mouse (male, random-bred, Swiss). Particulars: Erythrocyte, nine daily doses, pooled sera of 5 mice, read-out: minimum effective dose (MED), lowest dose producing 75 percent or greater antibody reduction. As to the method:
(§1) Groups of five 20-gram, male, random-bred, Swiss mice received intravenous injections of 5×10^7 sheep red blood cells. The cells for these injections were prepared from lamb's blood (collected in Alsever's solution) by washing three times with 0.85 percent saline and resuspending in 0.85 percent saline. Nine daily doses of each compound to be tested, solubilized in polyethylene glycol 400, were administered orally in 0.1 ml. doses, commencing three days prior to red blood cell injection. Several dose levels of each compound were employed, at 2-fold increments. A control group of mice, receiving a red blood cell injection and nine daily doses of vehicle instead of drug, was included. Six days after the antigen injections, the mice were bled by cardiac puncture and the sera from each 5-mouse group pooled. The serum pools, following complement inactivation, were assayed for hemagglutinin content by standard procedures, utilizing a mixture of serial 2-fold saline dilutions of the test sera with 0.5 percent sheep red blood cell suspensions in plastic depression trays. Following incubation of the trays for 3 hours at 37° C., the hemagglutination patterns were graded.

Assay [3] relates to antibody (hemagglutinin) titer against sheep red blood cells. The assay can be described thus: Individual serum assay procedure (hemagglutinin titer). It is filed as in vivo. The conditions noted are these: Erythrocyte, ten daily doses, 10-mouse groups, read-out: Endpoint Dose (p <0.05), lowest dose significantly lowering antibody titer. The protocol:
as §1, with “graded. […] The mice were bled as before, but the sera were titered individually rather than as a pool. Mean hemagglutinin values (log2)±S.E. were calculated for each 10-mouse group and p values (by Student's t Test), in comparison with the control group, were determined. […] The drugs were administered orally or subcutaneously in ten daily doses, commencing three days prior to red blood cell injection. Drugs were suspended in a vehicle composed of saline containing 0.125 percent methylcellulose and 0.2 percent nonionic emulsifying agent. Antibody (hemagglutinin) determinations were made seven days following a red blood cell injection.” for “graded.”

In assay [4] the test system is adjuvant-induced arthritis (uninjected hind paw swelling, bone damage). The assay can be described thus: Adjuvant-induced arthritis test in rats. It is filed as in vivo, rat (male Lewis-Wistar). Particulars: 30 mg/kg/day oral; for % inhibition (uninjected paw volume): printed under Day 18, formula in footnote drawing.
Setting [5] is: Day 11, TB control 2.02 ± 0.037.
[6] abbreviates: Day 14, TB control 2.69 ± 0.106.
Where [7] appears, read: Day 16, TB control 3.26 ± 0.202.
Setting [8] is: Day 18, TB control 3.65 ± 0.227.

Like-named read-outs stand apart in the source and are kept apart here. Where only a bound is given, the exact number is not on record here.

Consider `COc1ccc2nc(NC(=O)Nc3ccccc3)sc2c1` [1-(6-methoxy-2-benzothiazolyl)-3-phenylurea, reference compound], for which, in assay [1] (12.5 mg/kg × 13, oral, illustrative calculation with Syn. Control 5.20), the “Percent Inhibition” value is recorded as 74%. Further, the “Mg Spleen/g Body Wt. ± S.E.” value in assay [1] (12.5 mg/kg × 13, oral, p<0.01 vs GVH control (11.55 ± 1.01), groups of 5 mice) was 6.86 ± 0.80 mg spleen/g body wt.
On to `Brc1ccc(C2Nc3cccc4cccc(c34)N2)cc1` [2,3-dihydro-2-(p-bromophenyl)-1H-perimidine], for which the minimal effective dose in assay [2] was determined as 25 mg/kg.
With `Brc1ccc(C2=Nc3cccc4cccc(c34)N2)cc1Br.Cl` [2-(3,4-dibromophenyl)-1H-perimidine hydrochloride], the minimal effective dose in assay [2] amounted to 50 mg/kg.
As to `Cl.Clc1ccc(C2=Nc3cccc4cccc(c34)N2)cc1Cl` [2-(3,4-dichlorophenyl)-1H-perimidine hydrochloride], the minimal effective dose in assay [3] (sc, subcutaneous) is less than 3.1 mg/kg; in assay [3] (oral), less than 3.1 mg/kg; in assay [2] it was 12.5 mg/kg.
For the molecule `Cl.Clc1ccc(C2=Nc3cccc4cccc(c34)N2)cc1Br` [2-(3-bromo-4-chlorophenyl)-1H-perimidine hydrochloride], the minimal effective dose in assay [2] stood at 50 mg/kg.
On to `Cl.Clc1cc(C2=Nc3cccc4cccc(c34)N2)ccc1Br` [2-(4-bromo-3-chlorophenyl)-1H-perimidine hydrochloride], for which the minimal effective dose in assay [2] was found to be 50 mg/kg.
For `Brc1cccc(C2=Nc3cccc4cccc(c34)N2)c1.Cl` [2-(m-bromophenyl)-1H-perimidine hydrochloride], the minimal effective dose in assay [2] was determined as 100 mg/kg.
With `Cl.FC(F)(F)c1cccc(C2=Nc3cccc4cccc(c34)N2)c1` [2-(m-trifluoromethylphenyl)-1H-perimidine hydrochloride], the minimal effective dose in assay [2] came out at 100 mg/kg.
With `Cl.FC(F)(F)C(F)(F)Oc1ccc(C2=Nc3cccc4cccc(c34)N2)cc1` [2-(p-PENTAFLUOROETHOXYPHENYL)-1H-PERIMIDINE HYDROCHLORIDE], in assay [2], the minimal effective dose worked out at 100 mg/kg.
Turning to `F.FC(F)(F)Oc1ccc(C2=Nc3cccc4cccc(c34)N2)cc1` [2-(p-TRIFLUOROMETHOXYPHENYL)-1H-PERIMIDINE HYDROFLUORIDE], the minimal effective dose was 12.5 mg/kg in assay [3] (oral) and less than 100 mg/kg in assay [2].
Consider `Cl.FC(F)(F)c1ccc(C2=Nc3cccc4cccc(c34)N2)cc1` [2-(p-TRIFLUOROMETHYLPHENYL)-1H-PERIMIDINE HYDROCHLORIDE], for which the “Percent Inhibition, GVH Series” value worked out at 78% in assay [1] (1.6 mg/kg × 13, oral); 96% in assay [1] (3.1 mg/kg × 13, oral); 77% in assay [1] (6.2 mg/kg × 13, oral); 53% in assay [1] (12.5 mg/kg × 13, oral); 101% in assay [1] (25 mg/kg × 13, oral). Besides, the “Mg Spleen/g mouse weight (mean + S.E.)” value in assay [1] (1.6 mg/kg × 13, oral, p <0.05, control 8.64 ± 1.10) amounted to 5.66 ± 0.33 mg spleen/g mouse weight; in assay [1] (3.1 mg/kg × 13, oral, p <0.01, control 8.64 ± 1.10) it was 4.96 ± 0.31 mg spleen/g mouse weight; in assay [1] (6.2 mg/kg × 13, oral, p <0.05, control 8.64 ± 1.10), 5.67 ± 0.51 mg spleen/g mouse weight; in assay [1] (12.5 mg/kg × 13, oral, control 8.64 ± 1.10), 6.62 ± 1.17 mg spleen/g mouse weight; in assay [1] (25 mg/kg × 13, oral, p <0.005, control 8.64 ± 1.10), 4.75 ± 0.42 mg spleen/g mouse weight. The minimal effective dose is less than 1.6 mg/kg in assay [3] (sc, subcutaneous); less than 1.6 mg/kg in assay [3] (oral); 6.25 mg/kg in assay [2]. Also, the “Uninjected Paw Volume” value in assay [4] (Day 9, TB control 1.94 ± 0.028) came to 1.93 ± 0.081; in assay [4] (setting [5]) it was 1.95 ± 0.079; in assay [4] (setting [6]), 2.13 ± 0.148; in assay [4] (setting [7]), 2.35 ± 0.233; in assay [4] (setting [8]), 2.53 ± 0.39. Further, the “Gross observation of X-ray photos, bone damage in injected and uninjected paws” value in assay [4] (day 18, bone damage very obvious in TB control) was “no bone damage”. The “% inhibition (uninjected paw volume)” value in assay [4] is reported as 69%.
As for `Cl.FC(F)(F)Sc1ccc(C2=Nc3cccc4cccc(c34)N2)cc1` [2-(p-TRIFLUOROMETHYLTHIOPHENYL)-1H-PERIMIDINE HYDROCHLORIDE], the minimal effective dose in assay [3] (oral) is 50 mg/kg; in assay [2], less than 100 mg/kg.
With `Brc1ccc(C2=Nc3cccc4cccc(c34)N2)cc1.Cl` [2-(p-bromophenyl)-1H-perimidine hydrochloride], the minimal effective dose in assay [3] (sc, subcutaneous) was less than 3.1 mg/kg; in assay [3] (oral) it was 25 mg/kg; in assay [2], 12.5 mg/kg.
With `Brc1ccc(C2=Nc3cccc4cccc(c34)N2)cc1` [2-(p-bromophenyl)-1H-perimidine], the “Percent Inhibition, GVH Series” value came to 19% in assay [1] (3.1 mg/kg × 13, subcutaneous); 66% in assay [1] (6.2 mg/kg × 13, subcutaneous); 79% in assay [1] (12.5 mg/kg × 13, subcutaneous); 84% in assay [1] (25 mg/kg × 13, subcutaneous); 102% in assay [1] (50 mg/kg × 13, subcutaneous). Further, the “Mg Spleen/g mouse weight (mean + S.E.)” value is 8.08 ± 0.66 mg spleen/g mouse weight in assay [1] (3.1 mg/kg × 13, subcutaneous, control 8.84 ± 0.72); 6.18 ± 0.39 mg spleen/g mouse weight in assay [1] (6.2 mg/kg × 13, subcutaneous, p <0.01, control 8.84 ± 0.72); 5.64 ± 0.65 mg spleen/g mouse weight in assay [1] (12.5 mg/kg × 13, subcutaneous, p <0.005, control 8.84 ± 0.72); 5.43 ± 0.41 mg spleen/g mouse weight in assay [1] (25 mg/kg × 13, subcutaneous, p <0.001, control 8.84 ± 0.72); 4.70 ± 0.21 mg spleen/g mouse weight in assay [1] (50 mg/kg × 13, subcutaneous, p <0.001, control 8.84 ± 0.72). Besides, the minimal effective dose in assay [2] stood at 25 mg/kg.
Regarding `Clc1ccc(C2=Nc3cccc4cccc(c34)N2)cc1` [2-(p-chlorophenyl)-1H-perimidine], the minimal effective dose in assay [2] amounted to 100 mg/kg.
`Cn1cnc([N+](=O)[O-])c1Sc1ncnc2nc[nH]c12` [Azathioprine, reference compound]: the minimal effective dose in assay [2] came to 100 mg/kg.
Take `CC(C(=O)O)c1cccc(Oc2ccccc2)c1` (stereo not shown) [fenoprofen, reference compound]: the “Uninjected Paw Volume” value is on record as 1.97 ± 0.023 in assay [4] (Day 9, TB control 1.94 ± 0.028); 2.11 ± 0.07 in assay [4] (setting [5]); 2.38 ± 0.099 in assay [4] (setting [6]); 2.7 ± 0.107 in assay [4] (setting [7]); 2.67 ± 0.128 in assay [4] (setting [8]). For the same molecule, in assay [4], the “% inhibition (uninjected paw volume)” value is 23%.
